# Data reported in patent US20230110689A1, “AGONIST COMBINATION” (Zealand Pharma A/S, priority 2020, published 2023).
# Starred links: 1 amine or outer side, 2 acyl side, 3 side chain; linkers in the order of their positions; H or OH if unused. Non-standard residues stand in square brackets, D forms with d. Groups on a side chain read outwards from the residue. *: point of attachment. C18 diacid = O=C(O)CCCCCCCCCCCCCCCCC(=O)*; γGlu = O=C(O)[C@H](CCC(=O)[*:2])N[*:1]; Aib = CC(C)(N)C(=O)O
# How the values were obtained:
# Format in all cases: in vivo, C57BL/6J mice
# [1] = system: Short Bowel Syndome (SBS) mice; experiment: Short bowel syndrome (SBS) mouse model: post operative survival, body weight and dietary intake; details: ICR mice
# Description: (§1) Adult, male C57BL/6J mice with ˜30 g body weight of ˜4 months, received a 12-cm ileum and cecum resection (ICR) with jejunocolonic anastomosis (see FIG. 1, middle). The mice were then randomly assigned to either Cpd 18 or vehicle treatment As control for the abdominal surgery, the sham group was included which had laparotomy, bowel exposure, transection and end-to-end anastomosis but no resection (see FIG. 1, bottom). To prevent intestinal obstruction, all mice were switched to liquid diet 2 days before surgery and maintained on this diet until the end of the experiment. Throughout the experiment, animals were singly housed. All mice were studied with the intention to survive to day 14.
# (§2) Briefly, mice were anesthetized by i.p. injection of ketamine (100 mg/kg bw) and xylazine (15 mg/kg bw) and orally intubated and ventilated. After midline incision, the distal small bowel and the cecum were exposed and then transected 12 cm proximal to the ileocecal junction and immediately distal to the cecum. The resected bowel was removed, and the length of the specimen was measured. An end-to-end, jejuno-colonic anastomosis was created and the abdomen was closed. In the sham group, laparotomy, bowel exposure, transection and end-to-end anastomosis but no resection was performed. Immediately after surgery, all mice were weighed and received 1 ml isotonic saline subcutaneously and carprofen 5 mg/kg body weight. All surgical procedures were performed by the same surgeon. Mice were kept in a heated terrarium (29° C.) for 4 h and then returned to individual cages with free access to liquid food and water. The liquid diet was provided in feeding tubes. Mice were allowed to recover for a day after surgery, and then injected once daily with 30 nmol/kg body weight of Cpd 18. […]
# (§3) Mice were scored for wellbeing daily as described (Berlin et al. 2019). If the wellness score dropped to below 4 pts, or when weight loss exceeded 20%, the mouse was immediately killed and not analyzed further. […]
# Body weight (FIG. 6) and food consumption (FIG. 7) was measured daily. […]
# [2] = system: Short Bowel Syndome (SBS) mice; experiment: SBS mouse model: histological morphometry of intestine (mucosal height, bowel diameter); details: ICR mice, 30 nmol/kg once daily, vs sham
# Description: as §1
# Briefly, mice were anesthetized by i.p. injection of ketamine (100 mg/kg bw) and xylazine (15 mg/kg bw) and orally intubated and ventilated. […] The resected bowel was removed, and the length of the specimen was measured. […]
# as §3
# Sham and SBS mice were prepared as described under Preparation of Short Bowel Syndome (SBS) mice. […] Bowel diameter was measured from the same samples from serosa to serosa in two dimensions. […]
# [3] = system: Short Bowel Syndome (SBS) mice; experiment: SBS mouse model: jejunum weight (wet weight, dry weight, water content per 2 cm); details: ICR mice, 30 nmol/kg once daily
# Description: as §1
# as §2, with “tubes.” for “tubes. Mice were allowed to recover for a day after surgery, and then injected once daily with 30 nmol/kg body weight of Cpd 18.”
# as §3
# Sham and SBS mice were prepared as described under Preparation of Short Bowel Syndome (SBS) mice. […] Water content and dry weight was then derived and calculated.
# [4] = system: Short Bowel Syndome (SBS) mice; experiment: SBS mouse model: gross morphology / length of intestine on day 14; details: ICR mice, 30 nmol/kg once daily, FIG. 16
# Description: as §1
# Briefly, mice were anesthetized by i.p. injection of ketamine (100 mg/kg bw) and xylazine (15 mg/kg bw) and orally intubated and ventilated. After midline incision, the distal small bowel and the cecum were exposed and then transected 12 cm proximal to the ileocecal junction and immediately distal to the cecum. The resected bowel was removed, and the length of the specimen was measured. An end-to-end, jejuno-colonic anastomosis was created and the abdomen was closed. […]
# as §3
substance,measurement,setting,value
H-H[Aib]EGSFTSELATILDK([γGlu-C18 diacid])QAARDFIAWLIQHKITD-OH [Cpd 18],survival rate after 14 days,"[1]; 30 nmol/kg body weight once daily from day 1 after surgery, FIG. 5",74%
same,dietary intake,"[1]; 30 nmol/kg once daily, liquid diet, measured daily, vs vehicle, FIG. 7",lower in the Cpd 18 treated animals from day 2 onwards as compared to vehicle
same,relative body weight (relative to initial weight),"[1]; 30 nmol/kg once daily, measured daily to day 14, vs vehicle, FIG. 6",differed from the vehicle group after six days onwards by starting to increase towards the initial weight
same,mucosal height,"[2]; day 14, crypt base to villus tip, FIG. 8",approximately double the mucosal height of sham treated animals
same,bowel diameter,"[2]; day 14, serosa to serosa, FIG. 9",approximately double the bowel diameter of sham treated animals
same,dry weight per 2 cm of intestine,"[3]; day 14, desiccated sections, FIG. 11",the same increases in mass were measured
same,wet weight of 2 cm sections of intestine,"[3]; day 14, proximal jejunum, FIG. 10",73 mg
same,percentage of water content per 2 cm of intestine,"[3]; day 14, FIG. 12",each group had an equal water content of the intestine
same,bowel length and thickness,"[4]; day 14, representative example vs sham",An increase in bowel length and thickness
same,solid feces in intestine,"[4]; day 14, representative example, absent in vehicle",solid feces in the sham and Cpd 18 treated intestine
